Experimental data published in BigSolDB 2.1.

c1cc(-n2c3ccccc3c3ccccc32)cc(-n2c3ccccc3c3ccccc32)c1
solubility (mole fraction)
Conditions | 273.15 K | 283.15 K | 293.15 K | 303.15 K | 313.15 K | 323.15 K
in DMSO | – | – | 0.00436 | 0.00443 | 0.00472 | 0.00505
in NMP | – | 0.062 | 0.0702 | 0.0761 | 0.0801 | –
in THF | – | 0.0507 | 0.0528 | 0.0598 | 0.0792 | –
in acetonitrile | – | 0.000243 | 0.000311 | 0.000363 | 0.000483 | –
in dichloromethane | 0.0949 | 0.107 | 0.112 | 0.139 | – | –
in ethanol | – | 0.000448 | 0.000561 | 0.000802 | 0.00109 | –
in ethyl acetate | – | 0.00426 | 0.00599 | 0.00827 | 0.00879 | –
in isopropanol | – | 4.55e-05 | 5.9e-05 | 6.95e-05 | 0.00011 | –
in methanol | – | 4.36e-05 | 6.14e-05 | 9.66e-05 | 0.000108 | –
in n-butanol | – | 0.000122 | 0.00017 | 0.000217 | 0.000318 | –
in n-hexane | – | 0.000183 | 0.000259 | 0.000342 | 0.000381 | –
in toluene | – | 0.0263 | 0.0316 | 0.0336 | 0.0445 | –
